In ChEMBL document CHEMBL4507269, “Data for DCP probe BAY-386” (2021):

Experiments:
[1] = target: Mitogen-activated protein kinase 15 (Homo sapiens) (UniProt Q8TD08); details: Compound concentration 1000.0 nM
[2] = target: Serine/threonine-protein kinase TNNI3K (Homo sapiens) (UniProt Q59H18); details: Compound concentration 1000.0 nM
[3] = target: Atypical kinase COQ8A, mitochondrial (Homo sapiens) (UniProt Q8NI60); details: Compound concentration 1000.0 nM
[4] = target: Dual specificity protein kinase TTK (Homo sapiens) (UniProt P33981); details: Compound concentration 1000.0 nM
[5] = tested on: Phosphatidylinositol 4,5-bisphosphate 3-kinase catalytic subunit alpha isoform (Homo sapiens), P42336 [E545K]; details: Compound concentration 1000.0 nM
[6] = target: Ribosomal protein S6 kinase alpha-5 (Homo sapiens) (UniProt O75582); details: Compound concentration 1000.0 nM
Chain of Ribosomal protein S6 kinase alpha-5 (Homo sapiens) (O75582 whole entry, looked up): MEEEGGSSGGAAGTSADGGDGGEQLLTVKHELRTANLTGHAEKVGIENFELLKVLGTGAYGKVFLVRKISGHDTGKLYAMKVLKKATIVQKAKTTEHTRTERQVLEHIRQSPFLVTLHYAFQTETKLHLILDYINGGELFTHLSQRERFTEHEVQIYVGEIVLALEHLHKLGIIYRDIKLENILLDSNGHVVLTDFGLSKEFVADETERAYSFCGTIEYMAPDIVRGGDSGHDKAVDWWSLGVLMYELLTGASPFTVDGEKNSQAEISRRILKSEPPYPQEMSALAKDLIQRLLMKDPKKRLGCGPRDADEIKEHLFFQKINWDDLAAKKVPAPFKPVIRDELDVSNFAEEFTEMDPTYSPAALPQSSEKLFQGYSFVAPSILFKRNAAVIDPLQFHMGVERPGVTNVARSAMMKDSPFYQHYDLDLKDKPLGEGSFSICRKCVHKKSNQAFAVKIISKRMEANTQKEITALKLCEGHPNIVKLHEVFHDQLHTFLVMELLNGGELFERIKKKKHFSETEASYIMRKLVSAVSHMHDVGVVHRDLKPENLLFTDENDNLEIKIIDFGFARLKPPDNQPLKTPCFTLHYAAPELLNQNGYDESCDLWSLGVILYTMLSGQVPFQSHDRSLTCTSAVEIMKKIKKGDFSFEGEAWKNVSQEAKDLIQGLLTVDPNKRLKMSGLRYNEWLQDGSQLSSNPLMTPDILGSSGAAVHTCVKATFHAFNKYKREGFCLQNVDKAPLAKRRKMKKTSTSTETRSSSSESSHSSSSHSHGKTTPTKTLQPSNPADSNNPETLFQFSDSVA

[7] = target: RAC-alpha serine/threonine-protein kinase (Homo sapiens) (UniProt P31749); details: Compound concentration 1000.0 nM
[8] = target: Mitogen-activated protein kinase 10 (Homo sapiens) (UniProt P53779); details: Compound concentration 1000.0 nM
[9] = target: Protein kinase C epsilon type (Homo sapiens) (UniProt Q02156); details: Compound concentration 1000.0 nM
[10] = target: Atypical kinase COQ8B, mitochondrial (Homo sapiens) (UniProt Q96D53); details: Compound concentration 1000.0 nM
Chain of Atypical kinase COQ8B, mitochondrial (Homo sapiens) (Q96D53 whole entry): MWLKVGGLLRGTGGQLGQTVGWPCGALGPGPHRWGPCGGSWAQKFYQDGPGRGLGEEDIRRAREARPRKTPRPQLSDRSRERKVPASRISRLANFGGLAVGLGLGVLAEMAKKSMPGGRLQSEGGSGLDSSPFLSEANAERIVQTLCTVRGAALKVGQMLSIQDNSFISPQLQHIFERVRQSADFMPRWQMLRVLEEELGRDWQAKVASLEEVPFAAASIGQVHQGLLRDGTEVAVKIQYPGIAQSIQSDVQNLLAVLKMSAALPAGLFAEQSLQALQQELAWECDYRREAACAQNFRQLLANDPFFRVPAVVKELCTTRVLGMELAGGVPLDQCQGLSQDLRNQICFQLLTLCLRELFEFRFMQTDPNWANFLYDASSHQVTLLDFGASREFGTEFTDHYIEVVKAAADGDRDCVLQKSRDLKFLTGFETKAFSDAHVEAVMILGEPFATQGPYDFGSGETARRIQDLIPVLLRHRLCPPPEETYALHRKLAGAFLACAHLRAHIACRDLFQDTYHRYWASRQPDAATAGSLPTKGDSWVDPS

[11] = target: Histamine H1 receptor (Homo sapiens) (UniProt P35367); test: H1 (h) Eurofins-Cerep Cellular and Nuclear Receptor Functional Assays; details: Compound concentration 10.0 uM
Chain of Histamine H1 receptor (Homo sapiens) (P35367 whole entry): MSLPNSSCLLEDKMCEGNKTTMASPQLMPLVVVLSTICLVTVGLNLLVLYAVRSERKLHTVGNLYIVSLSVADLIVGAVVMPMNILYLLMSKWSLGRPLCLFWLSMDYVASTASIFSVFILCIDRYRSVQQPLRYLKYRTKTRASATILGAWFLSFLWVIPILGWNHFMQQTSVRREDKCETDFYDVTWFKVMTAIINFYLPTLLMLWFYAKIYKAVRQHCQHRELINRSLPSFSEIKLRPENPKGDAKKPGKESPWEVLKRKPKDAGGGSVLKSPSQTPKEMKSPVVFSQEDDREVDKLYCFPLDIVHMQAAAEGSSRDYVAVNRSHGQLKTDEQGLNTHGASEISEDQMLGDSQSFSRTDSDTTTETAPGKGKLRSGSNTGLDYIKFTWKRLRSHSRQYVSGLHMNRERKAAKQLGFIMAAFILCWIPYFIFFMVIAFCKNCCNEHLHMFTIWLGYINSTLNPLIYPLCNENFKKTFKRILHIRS

[12] = tested on: Mast/stem cell growth factor receptor Kit (Homo sapiens), P10721 [D816V]; details: Compound concentration 1000.0 nM
Chain of Mast/stem cell growth factor receptor Kit (Homo sapiens), P10721 [D816V] (P10721 whole entry D816V): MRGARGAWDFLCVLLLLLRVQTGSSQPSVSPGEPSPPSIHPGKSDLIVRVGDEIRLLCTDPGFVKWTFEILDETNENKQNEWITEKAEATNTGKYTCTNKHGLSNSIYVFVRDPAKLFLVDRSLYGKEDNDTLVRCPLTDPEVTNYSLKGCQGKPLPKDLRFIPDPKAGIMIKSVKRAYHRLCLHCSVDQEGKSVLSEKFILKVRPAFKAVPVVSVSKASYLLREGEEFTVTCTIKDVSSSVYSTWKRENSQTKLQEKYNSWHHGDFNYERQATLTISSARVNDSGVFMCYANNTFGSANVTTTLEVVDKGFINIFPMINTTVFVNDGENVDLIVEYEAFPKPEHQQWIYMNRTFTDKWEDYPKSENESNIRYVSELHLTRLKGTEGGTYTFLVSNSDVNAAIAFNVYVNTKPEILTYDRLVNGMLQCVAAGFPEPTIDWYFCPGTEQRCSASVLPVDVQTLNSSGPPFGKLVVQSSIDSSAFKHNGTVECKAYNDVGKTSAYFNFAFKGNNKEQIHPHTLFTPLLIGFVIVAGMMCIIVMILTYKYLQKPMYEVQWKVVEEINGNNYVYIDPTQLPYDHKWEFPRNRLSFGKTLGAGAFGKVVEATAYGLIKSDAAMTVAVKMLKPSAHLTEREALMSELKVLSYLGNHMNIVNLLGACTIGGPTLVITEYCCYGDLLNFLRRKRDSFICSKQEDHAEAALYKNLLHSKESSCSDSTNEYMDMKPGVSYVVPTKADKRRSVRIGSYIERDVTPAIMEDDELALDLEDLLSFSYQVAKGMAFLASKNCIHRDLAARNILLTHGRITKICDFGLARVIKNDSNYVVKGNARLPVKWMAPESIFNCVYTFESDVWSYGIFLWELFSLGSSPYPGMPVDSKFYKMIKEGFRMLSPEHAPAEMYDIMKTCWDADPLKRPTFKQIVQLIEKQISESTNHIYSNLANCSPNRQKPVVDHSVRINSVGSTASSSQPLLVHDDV

[13] = tested on: Epidermal growth factor receptor (Homo sapiens), P00533 [G719S]; details: Compound concentration 1000.0 nM
[14] = target: Activated CDC42 kinase 1 (Homo sapiens) (UniProt Q07912); details: Compound concentration 1000.0 nM
Chain of Activated CDC42 kinase 1 (Homo sapiens) (Q07912 whole entry, looked up): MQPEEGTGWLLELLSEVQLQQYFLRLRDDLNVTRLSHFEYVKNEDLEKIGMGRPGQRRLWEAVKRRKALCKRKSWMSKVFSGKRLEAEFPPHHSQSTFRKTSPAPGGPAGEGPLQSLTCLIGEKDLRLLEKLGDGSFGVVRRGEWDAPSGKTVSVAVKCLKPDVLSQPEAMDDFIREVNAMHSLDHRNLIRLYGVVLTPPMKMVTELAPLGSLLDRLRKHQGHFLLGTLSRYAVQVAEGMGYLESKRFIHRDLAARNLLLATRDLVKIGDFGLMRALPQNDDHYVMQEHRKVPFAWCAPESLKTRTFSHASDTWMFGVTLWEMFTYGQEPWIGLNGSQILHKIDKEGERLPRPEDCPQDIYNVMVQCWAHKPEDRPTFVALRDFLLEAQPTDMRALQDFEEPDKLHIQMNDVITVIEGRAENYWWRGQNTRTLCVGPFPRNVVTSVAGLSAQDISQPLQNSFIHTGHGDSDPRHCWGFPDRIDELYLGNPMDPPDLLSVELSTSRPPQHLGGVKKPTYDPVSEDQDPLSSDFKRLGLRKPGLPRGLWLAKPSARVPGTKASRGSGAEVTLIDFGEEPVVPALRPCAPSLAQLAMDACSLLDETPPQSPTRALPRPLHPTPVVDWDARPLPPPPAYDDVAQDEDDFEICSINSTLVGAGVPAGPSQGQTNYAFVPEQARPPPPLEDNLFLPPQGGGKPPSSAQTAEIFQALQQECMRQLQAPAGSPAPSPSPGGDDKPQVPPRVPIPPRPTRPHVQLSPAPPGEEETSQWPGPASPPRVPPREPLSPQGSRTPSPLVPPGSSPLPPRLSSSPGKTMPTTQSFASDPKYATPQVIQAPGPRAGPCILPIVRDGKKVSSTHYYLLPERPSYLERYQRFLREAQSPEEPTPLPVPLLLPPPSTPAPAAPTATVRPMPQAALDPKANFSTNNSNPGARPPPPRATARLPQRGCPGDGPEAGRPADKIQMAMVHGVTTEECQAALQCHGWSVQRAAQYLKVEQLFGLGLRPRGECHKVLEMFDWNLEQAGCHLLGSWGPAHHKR

[15] = target: Cyclin-dependent kinase 11A (Homo sapiens) (UniProt Q9UQ88); details: Compound concentration 1000.0 nM
[16] = target: Mitogen-activated protein kinase kinase kinase 6 (Homo sapiens) (UniProt O95382); details: Compound concentration 1000.0 nM
[17] = target: Focal adhesion kinase 1 (Homo sapiens) (UniProt Q05397); details: Compound concentration 1000.0 nM
[18] = target: Dual specificity mitogen-activated protein kinase kinase 2 (Homo sapiens) (UniProt P36507); details: Compound concentration 1000.0 nM
[19] = tested on: Epidermal growth factor receptor (Homo sapiens), P00533 [UNDEFINED MUTATION]; details: Compound concentration 1000.0 nM
[20] = target: Tyrosine-protein kinase Fes/Fps (Homo sapiens) (UniProt P07332); details: Compound concentration 1000.0 nM
[21] = target: Homeodomain-interacting protein kinase 1 (Homo sapiens) (UniProt Q86Z02); details: Compound concentration 1000.0 nM
[22] = target: T1, Alpha-1A adrenergic receptor (Homo sapiens) (UniProt P35348); details: Compound concentration 10.0 uM
T1 sequence (whole entry): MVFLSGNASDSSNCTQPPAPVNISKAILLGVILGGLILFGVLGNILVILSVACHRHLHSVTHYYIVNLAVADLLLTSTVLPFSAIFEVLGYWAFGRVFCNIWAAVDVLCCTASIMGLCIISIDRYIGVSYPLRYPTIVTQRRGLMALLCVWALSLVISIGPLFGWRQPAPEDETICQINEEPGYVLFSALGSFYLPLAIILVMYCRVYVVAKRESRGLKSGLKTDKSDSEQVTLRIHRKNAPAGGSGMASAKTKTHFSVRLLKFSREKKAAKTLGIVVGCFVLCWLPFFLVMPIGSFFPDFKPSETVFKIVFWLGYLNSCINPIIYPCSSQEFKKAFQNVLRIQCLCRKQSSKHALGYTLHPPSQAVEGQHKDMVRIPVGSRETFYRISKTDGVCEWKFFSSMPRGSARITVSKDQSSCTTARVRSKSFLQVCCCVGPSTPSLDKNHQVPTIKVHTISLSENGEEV

[23] = target: SRSF protein kinase 3 (Homo sapiens) (UniProt Q9UPE1); details: Compound concentration 1000.0 nM
[24] = target: Vascular endothelial growth factor receptor 1 (Homo sapiens) (UniProt P17948); details: Compound concentration 1000.0 nM
[25] = target: Serine/threonine-protein kinase Nek5 (Homo sapiens) (UniProt Q6P3R8); details: Compound concentration 1000.0 nM
[26] = target: Cyclin-dependent kinase-like 2 (Homo sapiens) (UniProt Q92772); details: Compound concentration 1000.0 nM
Chain of Cyclin-dependent kinase-like 2 (Homo sapiens) (Q92772 whole entry): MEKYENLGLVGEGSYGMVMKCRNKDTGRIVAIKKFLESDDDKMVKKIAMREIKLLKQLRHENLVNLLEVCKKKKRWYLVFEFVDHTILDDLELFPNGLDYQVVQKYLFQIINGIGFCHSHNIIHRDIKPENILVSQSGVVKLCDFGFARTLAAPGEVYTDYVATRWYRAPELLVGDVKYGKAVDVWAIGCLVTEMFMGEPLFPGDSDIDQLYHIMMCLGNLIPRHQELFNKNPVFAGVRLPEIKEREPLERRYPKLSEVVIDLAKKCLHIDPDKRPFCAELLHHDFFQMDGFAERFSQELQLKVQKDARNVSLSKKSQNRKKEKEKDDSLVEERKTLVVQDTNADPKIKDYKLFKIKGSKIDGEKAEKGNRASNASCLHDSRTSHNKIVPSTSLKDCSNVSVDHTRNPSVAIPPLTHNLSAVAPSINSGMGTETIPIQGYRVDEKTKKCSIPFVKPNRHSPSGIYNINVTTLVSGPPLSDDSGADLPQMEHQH

[27] = target: D(1A) dopamine receptor (Homo sapiens) (UniProt P21728); details: Compound concentration 10.0 uM
[28] = target: Ribosomal protein S6 kinase alpha-5 (Homo sapiens) (UniProt O75582); details: Compound concentration 1000.0 nM; remark: listed apart in the source
[29] = target: Tyrosine-protein kinase ABL1 (Homo sapiens) (UniProt P00519); details: Compound concentration 1000.0 nM
[30] = target: Calcium/calmodulin-dependent protein kinase type 1 (Homo sapiens) (UniProt Q14012); details: Compound concentration 1000.0 nM
[31] = target: Serine/threonine-protein kinase 35 (Homo sapiens) (UniProt Q8TDR2); details: Compound concentration 1000.0 nM
[32] = target: Receptor-type tyrosine-protein kinase FLT3 (Homo sapiens) (UniProt P36888); details: Compound concentration 1000.0 nM
[33] = target: Cytoplasmic tyrosine-protein kinase BMX (Homo sapiens) (UniProt P51813); details: Compound concentration 1000.0 nM
[34] = target: TRAF2 and NCK-interacting protein kinase (Homo sapiens) (UniProt Q9UKE5); details: Compound concentration 1000.0 nM
[35] = target: Inhibitor of nuclear factor kappa-B kinase subunit alpha (Homo sapiens) (UniProt O15111); details: Compound concentration 1000.0 nM
[36] = target: T1, Alpha-1A adrenergic receptor (Homo sapiens); test: alpha1A (h) Eurofins-Cerep Cellular and Nuclear Receptor Functional Assays; details: Compound concentration 10.0 uM

Chain of Mitogen-activated protein kinase 15 (Homo sapiens) (Q8TD08 whole entry): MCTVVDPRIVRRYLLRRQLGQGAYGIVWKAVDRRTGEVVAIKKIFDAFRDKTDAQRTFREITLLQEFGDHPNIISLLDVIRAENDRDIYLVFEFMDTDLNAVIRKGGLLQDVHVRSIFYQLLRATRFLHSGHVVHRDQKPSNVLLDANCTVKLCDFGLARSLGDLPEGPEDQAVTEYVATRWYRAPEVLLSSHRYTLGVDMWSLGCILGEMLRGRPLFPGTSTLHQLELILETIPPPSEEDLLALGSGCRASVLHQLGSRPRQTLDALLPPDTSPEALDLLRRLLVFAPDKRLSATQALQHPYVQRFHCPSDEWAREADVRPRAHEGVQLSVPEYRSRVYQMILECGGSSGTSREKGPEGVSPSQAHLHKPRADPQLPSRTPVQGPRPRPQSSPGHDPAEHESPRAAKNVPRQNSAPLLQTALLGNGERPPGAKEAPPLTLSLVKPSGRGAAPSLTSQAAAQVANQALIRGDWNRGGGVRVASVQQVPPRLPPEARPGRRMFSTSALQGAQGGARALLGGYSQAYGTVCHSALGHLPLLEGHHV

SMILES | residual activity [1] [%] | residual activity [2] [%] | residual activity [3] [%] | residual activity [4] [%] | residual activity [5] [%] | residual activity [6] [%] | residual activity [7] [%] | residual activity [8] [%] | residual activity [9] [%] | residual activity [10] [%] | % Inhibition of Control Agonist Response (Mean n=2) [11] [%] | % of Control Agonist Response (Mean n=2) [11] [%] | residual activity [12] [%] | residual activity [13] [%] | residual activity [14] [%] | residual activity [15] [%] | residual activity [16] [%] | residual activity [17] [%] | residual activity [18] [%] | residual activity [19] [%] | also measured
O=C(N1CCS(=O)(=O)CC1)N1C[C@H](c2ccc(OC(F)(F)F)cc2)C[C@H](c2nc(C3CC3)no2)C1 [BAY-386] | 100 | 100 | 100 | 82 | 90 | 100 | 96 | 79 | 97 | 73 | 6.9 | 4.1 | 100 | 99 | 97 | 0 | 91 | 93 | 100 | 92 | residual activity [20]: 100%; residual activity [21]: 100%; inhibition [22]: -5%; residual activity [23]: 100%; residual activity [24]: 100%; residual activity [25]: 98%; residual activity [26]: 100%; inhibition [27]: 3.2%; residual activity [28]: 100%; residual activity [29]: 84%; residual activity [30]: 100%; residual activity [31]: 100%; residual activity [32]: 81%; residual activity [33]: 100%; residual activity [34]: 75%; residual activity [35]: 97%; % Inhibition of Control Agonist Response (Mean n=2) [36]: 18.8%; % of Control Agonist Response (Mean n=2) [36]: 11.5%
Cc1noc([C@H]2C[C@@H](c3ccc(C(F)(F)F)cc3)CN(C(=O)N3CCS(=O)(=O)C3)C2)n1 [BAY-448] | 100 | 100 | 91 | 100 | 65 | 100 | 90 | 88 | 100 | 100 | -14.6 | 0.3 | 100 | 100 | 100 | 100 | 92 | 100 | 90 | 67 | residual activity [20]: 100%; residual activity [21]: 82%; inhibition [22]: -4.12%; residual activity [23]: 100%; residual activity [24]: 100%; residual activity [25]: 100%; residual activity [26]: 100%; inhibition [27]: 10.6%; residual activity [28]: 85%; residual activity [29]: 71%; residual activity [30]: 100%; residual activity [31]: 99%; residual activity [32]: 100%; residual activity [33]: 100%; residual activity [34]: 99%; residual activity [35]: 100%; % Inhibition of Control Agonist Response (Mean n=2) [36]: 4.3%; % of Control Agonist Response (Mean n=2) [36]: -0.4%
